Data published in PubChem BioAssay (NCI).
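Results reflect a 48-hour exposure of cells in 96-well plates to compound at five concentrations. Here, GI50 denotes the concentration required for 50% inhibition of growth. TGI: total growth inhibition.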

Tests used:
Experiment in all cases: NCI-60 cell line screen, 48 h
SK-MEL-28 melanoma = system: SK-MEL-28 melanoma
HCC-2998 colon = system: HCC-2998 colon
UACC-62 melanoma = system: UACC-62 melanoma
HCT-15 colon = system: HCT-15 colon
ACHN renal = system: ACHN renal
M14 melanoma = system: M14 melanoma
T-47D breast = system: T-47D breast
HCT-116 colon = system: HCT-116 colon
SNB-75 CNS = system: SNB-75 CNS
EKVX NSCLC = system: EKVX NSCLC
K-562 leukemia = system: K-562 leukemia
MDA-MB-231 breast = system: MDA-MB-231 breast
HOP-62 NSCLC = system: HOP-62 NSCLC
A549 NSCLC = system: A549 NSCLC
OVCAR-4 ovarian = system: OVCAR-4 ovarian
KM12 colon = system: KM12 colon
IGROV1 ovarian = system: IGROV1 ovarian
CCRF-CEM leukemia = system: CCRF-CEM leukemia
SF-268 CNS = system: SF-268 CNS
HL-60(TB) leukemia = system: HL-60(TB) leukemia
MDA-MB-435 = system: MDA-MB-435
HS 578T breast = system: HS 578T breast
SW-620 colon = system: SW-620 colon
NCI-H522 lung = system: NCI-H522 lung
OVCAR-3 ovarian = system: OVCAR-3 ovarian
SNB-19 CNS = system: SNB-19 CNS
SF-539 CNS = system: SF-539 CNS
HT29 colon = system: HT29 colon
RPMI-8226 leukemia = system: RPMI-8226 leukemia
OVCAR-5 ovarian = system: OVCAR-5 ovarian
MOLT-4 leukemia = system: MOLT-4 leukemia
SK-MEL-5 melanoma = system: SK-MEL-5 melanoma
BT-549 breast = system: BT-549 breast
RXF 393 renal = system: RXF 393 renal
NCI-H23 lung = system: NCI-H23 lung
LOX IMVI melanoma = system: LOX IMVI melanoma
SK-OV-3 ovarian = system: SK-OV-3 ovarian
U251 CNS = system: U251 CNS
CAKI-1 renal = system: CAKI-1 renal
NCI/ADR-RES ovarian = system: NCI/ADR-RES ovarian
A498 renal = system: A498 renal
UACC-257 melanoma = system: UACC-257 melanoma
SK-MEL-2 melanoma = system: SK-MEL-2 melanoma
786-0 renal = system: 786-0 renal
DU-145 prostate = system: DU-145 prostate
HOP-92 NSCLC = system: HOP-92 NSCLC
MALME-3M melanoma = system: MALME-3M melanoma
UO-31 renal = system: UO-31 renal
OVCAR-8 ovarian = system: OVCAR-8 ovarian
SN12C renal = system: SN12C renal
NCI-H226 lung = system: NCI-H226 lung
COLO 205 colon = system: COLO 205 colon
PC-3 prostate = system: PC-3 prostate
MCF7 breast = system: MCF7 breast
SF-295 CNS = system: SF-295 CNS
TK-10 renal = system: TK-10 renal
NCI-H460 lung = system: NCI-H460 lung

In the case of `COc1cc2c3c(n(CCCN4CCC(N)CC4)c(=O)c2cc1OC)-c1cc2c(cc1C3=O)OCO2`, the GI50 (SK-MEL-28 melanoma) is reported as 983 nM, the TGI (SK-MEL-28 melanoma) is reported as 2900 nM and the GI50 (HCC-2998 colon) is reported as 143 nM. The TGI (HCC-2998 colon) was 3520 nM, the GI50 (UACC-62 melanoma) was 1330 nM and the TGI (UACC-62 melanoma) was 6340 nM. It also gave a GI50 (HCT-15 colon) of 1010 nM, a TGI (HCT-15 colon) of 6010 nM and a GI50 (ACHN renal) of 336 nM. It also gave a TGI (ACHN renal) of 1240 nM, a GI50 (M14 melanoma) of 1340 nM and a TGI (M14 melanoma) of 5230 nM. The GI50 (T-47D breast) was 1060 nM, the TGI (T-47D breast) was 4000 nM and the GI50 (HCT-116 colon) was 119 nM. It also gave a TGI (HCT-116 colon) of 807 nM, a GI50 (SNB-75 CNS) of 890 nM and a TGI (SNB-75 CNS) of 5560 nM. It also gave a GI50 (EKVX NSCLC) of 1310 nM, a TGI (EKVX NSCLC) of 3870 nM and a GI50 (K-562 leukemia) of 587 nM. For the same compound, the TGI (K-562 leukemia) was 6910 nM, the GI50 (MDA-MB-231 breast) was 682 nM and the TGI (MDA-MB-231 breast) was 1360 nM. It also gave a GI50 (HOP-62 NSCLC) of 423 nM, a TGI (HOP-62 NSCLC) of 1110 nM and a GI50 (A549 NSCLC) of 278 nM. It also gave a TGI (A549 NSCLC) of 927 nM, a GI50 (OVCAR-4 ovarian) of 211 nM and a TGI (OVCAR-4 ovarian) of 1270 nM. It also gave a GI50 (KM12 colon) of 619 nM, a TGI (KM12 colon) of 1590 nM and a GI50 (IGROV1 ovarian) of 1700 nM. For the same compound, the TGI (IGROV1 ovarian) was 16000 nM, the GI50 (CCRF-CEM leukemia) was 129 nM and the TGI (CCRF-CEM leukemia) was 681 nM. For the same compound, the GI50 (SF-268 CNS) was 1720 nM, the TGI (SF-268 CNS) was 8890 nM and the GI50 (HL-60(TB) leukemia) was 4040 nM. For the same compound, the TGI (HL-60(TB) leukemia) was 7870 nM, the GI50 (MDA-MB-435) was 1770 nM and the TGI (MDA-MB-435) was 8470 nM. The GI50 (HS 578T breast) was 1690 nM, the TGI (HS 578T breast) was 11700 nM and the GI50 (SW-620 colon) was 447 nM. It also gave a TGI (SW-620 colon) of 1430 nM, a GI50 (NCI-H522 lung) of 3400 nM and a TGI (NCI-H522 lung) of 21700 nM. The GI50 (OVCAR-3 ovarian) was 765 nM, the TGI (OVCAR-3 ovarian) was 1900 nM and the GI50 (SNB-19 CNS) was 1460 nM. For the same compound, the TGI (SNB-19 CNS) was 8700 nM, the GI50 (SF-539 CNS) was 254 nM and the TGI (SF-539 CNS) was 863 nM. For the same compound, the GI50 (HT29 colon) was 621 nM, the TGI (HT29 colon) was 9810 nM and the GI50 (RPMI-8226 leukemia) was 202 nM. It also gave a TGI (RPMI-8226 leukemia) of 1020 nM, a GI50 (OVCAR-5 ovarian) of 1450 nM and a TGI (OVCAR-5 ovarian) of 5150 nM. The GI50 (MOLT-4 leukemia) was 45.6 nM, the TGI (MOLT-4 leukemia) was 1890 nM and the GI50 (SK-MEL-5 melanoma) was 1840 nM. The TGI (SK-MEL-5 melanoma) was 8470 nM, the GI50 (BT-549 breast) was 2410 nM and the TGI (BT-549 breast) was 9840 nM. It also gave a GI50 (RXF 393 renal) of 940 nM, a TGI (RXF 393 renal) of 3310 nM and a GI50 (NCI-H23 lung) of 475 nM. For the same compound, the TGI (NCI-H23 lung) was 1600 nM, the GI50 (LOX IMVI melanoma) was 298 nM and the TGI (LOX IMVI melanoma) was 1020 nM. The GI50 (SK-OV-3 ovarian) was 3470 nM, the TGI (SK-OV-3 ovarian) was 13200 nM and the GI50 (U251 CNS) was 307 nM. For the same compound, the TGI (U251 CNS) was 945 nM, the GI50 (CAKI-1 renal) was 311 nM and the TGI (CAKI-1 renal) was 2990 nM. For the same compound, the GI50 (NCI/ADR-RES ovarian) was 2930 nM, the TGI (NCI/ADR-RES ovarian) was 20800 nM and the GI50 (A498 renal) was 3030 nM. It also gave a TGI (A498 renal) of 10800 nM, a GI50 (UACC-257 melanoma) of 7900 nM and a TGI (UACC-257 melanoma) of 17900 nM. For the same compound, the GI50 (SK-MEL-2 melanoma) was 3680 nM, the TGI (SK-MEL-2 melanoma) was 24200 nM and the GI50 (786-0 renal) was 763 nM. The TGI (786-0 renal) was 2380 nM, the GI50 (DU-145 prostate) was 140 nM and the TGI (DU-145 prostate) was 803 nM. It also gave a GI50 (HOP-92 NSCLC) of 202 nM, a TGI (HOP-92 NSCLC) of 1500 nM and a GI50 (MALME-3M melanoma) of 2090 nM. For the same compound, the TGI (MALME-3M melanoma) was 9890 nM, the GI50 (UO-31 renal) was 2320 nM and the TGI (UO-31 renal) was 16500 nM. The GI50 (OVCAR-8 ovarian) was 368 nM, the TGI (OVCAR-8 ovarian) was 1510 nM and the GI50 (SN12C renal) was 338 nM. The TGI (SN12C renal) was 1080 nM, the GI50 (NCI-H226 lung) was 757 nM and the TGI (NCI-H226 lung) was 2950 nM. The GI50 (COLO 205 colon) was 2860 nM, the TGI (COLO 205 colon) was 7380 nM and the GI50 (PC-3 prostate) was 302 nM. The TGI (PC-3 prostate) was 2110 nM, the GI50 (MCF7 breast) was 283 nM and the TGI (MCF7 breast) was 1010 nM. For the same compound, the GI50 (SF-295 CNS) was 479 nM, the TGI (SF-295 CNS) was 1360 nM and the GI50 (TK-10 renal) was 774 nM. The TGI (TK-10 renal) was 4360 nM, the GI50 (NCI-H460 lung) was 184 nM and the TGI (NCI-H460 lung) was 858 nM.
